According to US20100093760A1, “METHODS FOR IDENTIFYING COMPOUNDS THAT MODULATE CELL SIGNALING AND METHODS EMPLOYING SUCH COMPOUNDS” (The General Hospital Corporation, priority 2006, published 2010):
Entries after “also recorded” stand apart in the source; their conditions may differ.

System: BMP signaling pathway (activation of SMAD1/5/8 by BMP4)
Assay: Cellular ELISA of BMP4-mediated SMAD1/5/8 activation
Assay type: cell-based
Experimental: In one example, the cell-based assay of the invention is an enzyme linked immunosorbent assay (ELISA) in which activation of SMAD proteins (SMAD2 or SMAD1/5/8) is measured. […] As discussed above, SMAD proteins are phosphorylated by heteromeric complexes of type I and type II BMP or TGF-β serine-threonine kinase receptors when engaged by ligands. The principal effects of these ligands are generally attributable to gene transcription from the activation of specific SMADs. Phosphorylated SMADs can be detected in whole cell extracts using commercially available anti-phospho-protein antibodies with high specificity by Western blotting (Yu et al., J. Biol. Chem. 280:24443-24450, 2005).
In an improved method provided by the invention, phosphorylated SMADs are detected in whole cells with high sensitivity and specificity by immobilizing and rendering the phospho-SMAD antigens accessible to antibody. Traditional fixation with 1% to 8% paraformaldehyde solution followed by permeabilization with methanol, or a solution of dilute detergent such as Triton-X100, yields unacceptable results, with the signal being only 1.2 to 1.3 times the background, if it is detected at all (while Western blot these signal-to-noise ratios would be 10 to 20). […]

**Q.** For `c1cc(-c2cnn3cc(-c4ccc(OCCN5CCCCC5)cc4)cnc23)ccn1` [Compound C/Dorsomorphin], which “Preference for BMP-mediated SMAD1/5/8 over TGF-β-mediated SMAD2 phosphorylation” value (FIG. 4) is on record?
**A.** Its value is “potently and preferentially inhibited; also recorded: preferentially inhibits”.

**Q.** And the IC50 (FIG. 4, read-out: IC50, inhibition of activation of the BMP signaling pathway (SMAD1/5/8 by BMP4))?
**A.** Its IC50 is less than 200 nM.
